Assays:
[1] = target: human A2b adenosine receptor (Homo sapiens (Human), UniProt P29275); assay: A2b radioligand filtration binding assay; conditions: for IC50: membranes from HEK293 cells expressing human A2b receptor
Procedure, shortened: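 Displacement of a tritiated A2b antagonist (working solution 14 nM) from human A2b receptor membranes of recombinant HEK293 cells, in Mg/Ca-free PBS pH 7.4, 60 min at room temperature after 15 to 30 min compound preincubation. Filtered, counted; normalized to total and 20 μM NECA non-specific binding; IC50 from logistic fit.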

[2] = target: human A2a adenosine receptor (Homo sapiens (Human), UniProt P29274); assay: A2a receptor affinity radioligand binding assay ([3H] SCH58261); conditions: for IC50: membranes from HEK293 or CHO cells expressing human A2a receptor
Procedure, shortened: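 IC50 values come from 4-parameter logistic fits of filter-bound radioactivity, normalized to total (1% DMSO) and nonspecific (1 μM ZM241385) binding. Recombinant human A2a membranes (HEK293 or CHO) were exposed to compound for 15–30 min, then to [3H]SCH58261 (4 nM working dilution) for 60 min at room temperature in Tris pH 7.4/MgCl2/Tween20 buffer.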

Chain of human A2a adenosine receptor (P29274 whole entry): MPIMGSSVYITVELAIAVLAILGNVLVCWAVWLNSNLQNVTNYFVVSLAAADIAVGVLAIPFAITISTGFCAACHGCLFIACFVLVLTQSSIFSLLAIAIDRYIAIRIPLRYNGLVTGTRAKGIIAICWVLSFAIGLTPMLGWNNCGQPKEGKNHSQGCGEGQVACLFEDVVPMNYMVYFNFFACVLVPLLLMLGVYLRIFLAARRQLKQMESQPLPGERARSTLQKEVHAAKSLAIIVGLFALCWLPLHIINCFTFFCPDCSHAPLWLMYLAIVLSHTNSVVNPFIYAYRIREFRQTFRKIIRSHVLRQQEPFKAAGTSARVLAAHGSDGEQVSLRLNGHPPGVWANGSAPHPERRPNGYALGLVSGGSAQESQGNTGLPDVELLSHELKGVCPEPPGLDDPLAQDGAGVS
Chain of human A2b adenosine receptor (P29275 whole entry): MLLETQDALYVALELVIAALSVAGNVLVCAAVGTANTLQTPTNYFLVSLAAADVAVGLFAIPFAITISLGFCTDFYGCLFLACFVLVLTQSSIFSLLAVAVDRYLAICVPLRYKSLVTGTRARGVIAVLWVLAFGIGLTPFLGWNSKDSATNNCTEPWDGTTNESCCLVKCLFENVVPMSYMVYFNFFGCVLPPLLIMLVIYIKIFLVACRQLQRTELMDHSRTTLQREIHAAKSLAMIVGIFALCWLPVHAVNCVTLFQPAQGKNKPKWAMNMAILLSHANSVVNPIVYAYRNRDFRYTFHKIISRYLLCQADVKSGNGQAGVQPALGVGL

Row | Compound | IC50 [1] [nM] | IC50 [2] [nM] | A2B binding % Inh. @ 10000 nM [1] [% Inh.] | A2A binding % Inh. @ 1000 nM ([2]; @ 1000 nM) [% Inh. @]
1 | COc1cc(F)cc2c1nc(N)n1nc(C3CC(F)CN(c4cn(CC(C)(C)O)nc4C)C3)nc21 (single isomer, unassigned) [Example 76, 1-(4-((3R,5R or 3S,5S)-3-(5-amino-9-fluoro-7-methoxy-[1,2,4]triazolo[1,5-c]quinazolin-2-yl)-5-fluoropiperidin-1-yl)-3-methyl-1H-pyrazol-1-yl)-2-methylpropan-2-ol] | – | 256 | 34 | –
2 | COc1cc(F)cc2c1nc(N)n1nc(C3CCC(C)N(c4cnn(C(C)(C)CO)c4)C3)nc21 (single isomer, unassigned) [Example 122, 2-(4-((2R or 2S,5R or 5S)-5-(5-amino-9-fluoro-7-methoxy-[1,2,4]triazolo[1,5-c]quinazolin-2-yl)-2-methylpiperidin-1-yl)-1H-pyrazol-1-yl)-2-methylpropan-1-ol] | 2060 | 369 | – | –
3 | COc1cc2nc(N)n3nc(C4(F)CCN(c5cnn(CC(C)(C)O)c5)C4)nc3c2cc1F (single isomer, unassigned) [Example 63, (S or R)-1-(4-(3-(5-amino-9-fluoro-8-methoxy-[1,2,4]triazolo[1,5-c]quinazolin-2-yl)-3-fluoropyrrolidin-1-yl)-1H-pyrazol-1-yl)-2-methylpropan-2-ol] | 2430 | 242 | – | –
4 | COc1cc(F)cc2c1nc(N)n1nc(C3CC(F)CN(c4cn(CC(C)(C)O)nc4C)C3)nc21 (single isomer, unassigned) [Example 71, 1-(4-((3S,5R or 3R,5S)-3-(5-amino-9-fluoro-7-methoxy-[1,2,4]fltriazolo[1,5-c]quinazolin-2-yl)-5-fluoropiperidin-1-yl)-3-methyl-1H-pyrazol-1-yl)-2-methylpropan-2-ol] | – | 35.6 | 43 | –
5 | COc1cc2nc(N)n3nc([C@@H]4CCCN(c5cnn(CCCC(C)O)c5)C4)nc3c2cc1F (single isomer, unassigned) [Example 94, (S or R)-5-(4-((R)-3-(5-amino-9-fluoro-8-methoxy-[1,2,4]triazolo[1,5-c]quinazolin-2-yl)piperidin-1-yl)-1H-pyrazol-1-yl)pentan-2-ol] | 752 | 7.8 | – | –
6 | COc1cccc2c1nc(N)n1nc([C@@H]3CCC[C@](O)(c4cnn(CC(C)(C)O)c4)C3)nc21 (single isomer, unassigned) [Example 150, (1R,3R or 1S,3S)-3-(5-amino-7-methoxy-[1,2,4]triazolo[1,5-c]quinazolin-2-yl)-1-(1-(2-hydroxy-2-methylpropyl)-1H-pyrazol-4-yl)cyclohexan-1-ol] | 181 | 1.4 | – | –
7 | COc1cc2nc(N)n3nc(C4CN(c5cnn(CC(C)(C)O)c5C)CCS4(=O)=O)nc3c2cc1F (single isomer, unassigned) [Example 145, (S or R)-2-(5-amino-9-fluoro-8-methoxy-[1,2,4]triazolo[1,5-c]quinazolin-2-yl)-4-(1-(2-hydroxy-2-methylpropyl)-5-methyl-1H-pyrazol-4-yl)thiomorpholine 1,1-dioxide] | 8050 | – | – | 32
8 | COc1cc2nc(N)n3nc([C@H]4CC[C@@H](C)N(c5cn(CC6(O)CCC6)nc5C)C4)nc3c2cc1F (single isomer, unassigned) [Example 50, 1-((4-((2R,5S or 2S,5R)-5-(5-amino-9-fluoro-8-methoxy-[1,2,4]triazolo[1,5-c]quinazolin-2-yl)-2-methylpiperidin-1-yl)-3-methyl-1H-pyrazol-1-yl)methyl)cyclobutan-1-ol] | 1890 | 18.3 | – | –
9 | COc1cc2nc(N)n3nc([C@@H]4CCCN(c5ncn(CC(C)(C)O)n5)C4)nc3c2cc1F [Example 1, (R)-1-(3-(3-(5-amino-9-fluoro-8-methoxy-[1,2,4]triazolo[1,5-c]quinazolin-2-yl)piperidin-1-yl)-1H-1,2,4-triazol-1-yl)-2-methylpropan-2-ol] | 554 | 7.5 | – | –
10 | COc1cc2nc(N)n3nc([C@@H]4C[C@@H](F)CN(c5cnn(CC(C)(C)O)c5)C4)nc3c2cc1F (single isomer, unassigned) [Example 80, 1-(4-((3R,5R or 3S,5S)-3-(5-amino-9-fluoro-8-methoxy-[1,2,4]triazolo[1,5-c]quinazolin-2-yl)-5-fluoropiperidin-1-yl)-1H-pyrazol-1-yl)-2-methylpropan-2-ol] | 404 | 11.6 | – | –
11 | CCn1cc([C@]2(O)CCC[C@H](c3nc4c5cc(F)c(OC)cc5nc(N)n4n3)C2)cn1 (single isomer, unassigned) [Example 147, (1S or 1R,3S or 3R)-3-(5-amino-9-fluoro-8-methoxy-[1,2,4]triazolo[1,5-c]quinazolin-2-yl)-1-(1-ethyl-1H-pyrazol-4-yl)cyclohexan-1-ol] | 6330 | 870 | – | –
12 | COc1cc(F)cc2c1nc(N)n1nc(C3CCC(C)N(c4cnn(CC(C)(C)O)c4)C3)nc21 (single isomer, unassigned) [Example 121, 1-(4-((2S or 2R,5R or 5S)-5-(5-amino-9-fluoro-7-methoxy-[1,2,4]triazolo[1,5-c]quinazolin-2-yl)-2-methylpiperidin-1-yl)-1H-pyrazol-1-yl)-2-methylpropan-2-ol] | 5340 | 55.4 | – | –

Continued, values first:

Row | IC50 [1] [nM] | IC50 [2] [nM] | A2B binding % Inh. @ 10000 nM [1] [% Inh.] | A2A binding % Inh. @ 1000 nM ([2]; @ 1000 nM) [% Inh. @] | Compound
13 | 301 | 1.5 | – | – | COc1cc(F)cc2c1nc(N)n1nc([C@@H]3CCCN(c4cnn(CC(C)(C)O)c4C)C3)nc21 [Example 29, (R)-1-(4-(3-(5-amino-9-fluoro-7-methoxy-[1,2,4]triazolo [1,5-c]quinazolin-2-yl)piperidin-1-yl)-5-methyl-1H-pyrazol-1-yl)-2-methylpropan-2-ol]
14 | 150 | 1.8 | – | – | COc1cc2nc(N)n3nc(C4CCC(C)N(c5cnn(C6CCOCC6)c5C)C4)nc3c2cc1F (single isomer, unassigned) [Example 45, 9-fluoro-8-methoxy-2-((3R,6S or 3S,6R)-6-methyl-1-(5-methyl-1-(tetrahydro-2H-pyran-4-yl)-1H-pyrazol-4-yl)piperidin-3-yl)-[1,2,4]triazolo[1,5-c]quinazolin-5-amine]
15 | 468 | 1.1 | – | – | COc1cc(F)cc2c1nc(N)n1nc([C@@H]3CCCN(c4nc(C)n(CC(C)(C)O)n4)C3)nc21 [Example 37, (R)-1-(3-(3-(5-amino-9-fluoro-7-methoxy-[1,2,4]trazolo[1,5-c]quinazolin-2-yl)piperidin-1-yl)-5-methyl-1H-1,2,4-triazol-1-yl)-2-methylpropan-2-ol]
16 | 234 | 0.9 | – | – | COc1cc(F)cc2c1nc(N)n1nc(C3CC(F)CN(c4cnn(CC5(O)CCC5)c4)C3)nc21 (single isomer, unassigned) [Example 78, 1-(4-((3R,5R or 3S,5S)-3-(5-amino-9-fluoro-7-methoxy-[1,2,4]triazolo[1,5-c]quinazolin-2-yl)-5-fluoropiperidin-1-yl)-1H-pyrazol-1-yl)methyl)cyclobutan-1-ol]
17 | 104 | 3.7 | – | – | COc1cc2nc(N)n3nc([C@@H]4CCCN(c5cnn(CC(C)(C)O)c5)C4)nc3c2cc1F [Example 7, (R)-1-(4-(3-(5-amino-9-fluoro-8-methoxy-[1,2,4]triazolo[1,5-c]quinazolin-2-yl)piperidin-l-yl)-1H-pyrazol-1-yl)-2-methylpropan-2-ol]
18 | 13.5 | 0.7 | – | – | COc1cc2nc(N)n3nc([C@@H]4CCCN(c5cnn(C6CCOCC6)c5C(F)F)C4)nc3c2cc1F [Example 18, (R)-2-(1-(5-(difluoromethyl)-1-(tettahydro-2H-pyran-4-yl)-1H-pyrazol-4-yl)piperidin-3-yl)-9-fluoro-8-methoxy-[1,2,4]triazolo[1,5-c]quinazolin-5-amine]
19 | 99 | 5 | – | – | COc1cc2nc(N)n3nc(C4CCCCN(c5cnn(CC(C)(C)O)c5)C4)nc3c2cc1F (single isomer, unassigned) [Example 61, (S or R)-1-(4-(3-(5-amino-9-fluoro-8-methoxy-[1,2,4]triazolo[1,5-c]quinazolin-2-yl)azepan-1-yl)-1H-pyrazol-1-yl)-2-methylpropan-2-ol]
20 | 7.9 | 0.4 | – | – | Cc1cc2nc(N)n3nc([C@@H]4CC[C@H](C)N(c5cnn(CC(C)(C)O)c5)C4)nc3c2cc1F [Example 112, 1-(4-((2S,5R)-5-(5-amino-9-fluoro-8-methyl-[1,2,4]triazolo [1,5-c]quinazolin-2-yl)-2-methylpiperidin-1-yl)-1H-pyrazol-1-yl)-2-methylpropan-2-ol]
21 | 4.8 | 1.4 | – | – | COc1cc(F)cc2c1nc(N)n1nc([C@@H]3CCCN(c4cnn(C)c4)C3)nc21 [Example 100, (R)-9-fluoro-7-methoxy-2-(1-(1-methyl-1H-pyrazol-4-yl)piperidin-3-yl)-[1,2,4]triazolo[1,5-c]quinazolin-5-amine]
22 | 63 | 4.9 | – | – | COc1cc2nc(N)n3nc([C@@H]4CCCN(c5cnn([C@@H]6CCC[C@@]6(C)O)c5)C4)nc3c2cc1F (single isomer, unassigned) [Example 82, (1R or 1S,2R or 2S)-2-(4-((R)-3-(5-amino-9-fluoro-8-methoxy-[1,2,4]triazolo[1,5-c]quinazolin-2-yl)piperidin-1-yl)-1H-pyrazol-1-yl)-1-methylcyclopentan-1-ol]
23 | 484 | 2 | – | – | COc1cc(F)cc2c1nc(N)n1nc(C3CC(F)CN(c4cnn(CC5(O)CCC5)c4)C3)nc21 (single isomer, unassigned) [Example 72, 1-(4-((3R,5S or 3S,5R)-3-(5-amino-9-fluoro-7-methoxy-[1,2,4]triazolo[1,5-c]quinazolin-2-yl)-5-fluoropiperidin-1-yl)-1H-pyrazol-1-yl)methyl)cyclobutan-1-ol]
